In patent US11389569B2, “Biodegradable, porous, thermally responsive injectable hydrogel as soft tissue defect filler” (University of Pittsburgh—Of the Commonwealth System of …, priority 2017, dated 2022):

Assays:
[1] = Mannitol particle size, initially and after mixing with VP10 hydrogel solution; assay type: physicochemical
Source text: All chemicals were purchased from Sigma-Aldrich unless otherwise stated. N-isopropylacrylamide (NIPAAm) was purified by recrystallization from hexane and vacuum-dried. 2-Hydroxyethyl methacrylate (HEMA) was purified by vacuum distillation. Vinylpyrrolidone (VP), lactide, benzoyl peroxide (BPO), sodium methoxide (NaOCH3), methacryloyl chloride, methacrylic acid (MAA) and other solvents were used as received. D-mannitol particles were sieved to obtain the portion between 170 and 230 meshes.

SMCs = test: Cytotoxicity and proliferation of SMCs (mitochondrial activity assay); assay type: cell-based; conditions: dissolved mannitol

particle size change after mixing with hydrogel solution ([1]; mixed with VP10 hydrogel solution for 10 min): did not decrease significantly
initial size of sieved mannitol particles ([1]; sieved, 170-230 mesh): 68.0 μm
Structure (SMILES): OC[C@@H](O)[C@@H](O)[C@H](O)[C@H](O)CO [mannitol, D-mannitol]
concentration up to which no cytotoxicity was shown (SMCs): up to 100 mM
